Assay results: PubChem BioAssay (NCI)
“And” between values parts separate entries of the source, which are not always exact repeats. Equal values may be shown once.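 These data come from cells grown in 96-well plates and exposed to compound for 48 hours at five concentrations. GI50 is the concentration that inhibits growth by half. TGI denotes the concentration required for complete inhibition of growth.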

Key:
Assay in all cases: inhibition of tumour cell growth, NCI panel, 48 h
[1] = system: MDA-MB-435
[2] = system: PC-3 prostate
[3] = system: NCI/ADR-RES ovarian
[4] = system: RXF 393 renal
[5] = system: OVCAR-5 ovarian
[6] = system: A498 renal
[7] = system: CAKI-1 renal
[8] = system: HCT-15 colon
[9] = system: RPMI-8226 leukemia
[10] = system: HL-60(TB) leukemia

SMILES | GI50 [1] [µM] | TGI [1] [µM] | GI50 [2] [µM] | TGI [2] [µM] | GI50 [3] [µM] | TGI [3] [µM] | GI50 [4] [µM] | TGI [4] [µM] | GI50 [5] [µM] | TGI [5] [µM] | GI50 [6] [µM] | TGI [6] [µM] | GI50 [7] [µM] | TGI [7] | GI50 [8] [µM] | TGI [8] [µM] | GI50 [9] [µM] | TGI [9] [µM] | GI50 [10] [µM] | TGI [10] [µM]
Nc1nccc(-c2c(-c3ccc(F)cc3)nn3cc(C(F)(F)F)ccc23)n1 | > 25 | > 25 | > 25 | > 25 | > 25 | > 25 | > 25 | > 25 | > 25 | > 25 | > 25 | > 25 | > 25 | > 25 µM | > 25 | > 25 | > 25 | > 25 | > 25 | > 25
CCSCC1CC(O)(c2ccccc2)C(c2ccccc2)C(c2ccc(F)cc2)O1 (stereo not given) | 1.98 | 5.24 | 1.95 | 9.06 | 1.89 | 6.67 | 1.87 | 3.57 | 2.08 | 4.91 | 2.15 | 3.7 | 1.58 | 3.48 µM | 1.76 | 3.99 | 1.14 | 5.95 | 1.7 | 6.33
CN1CCN(c2c(F)cc(NC3=C(Cl)C(=O)c4ncccc4C3=O)cc2F)CC1 | 1.84 | 3.62 | 5.87 | 21.1 | 17.9 | 49.3 | 1.67 | 3.31 | 14.8 | 28 | 13.4 | 29.2 | 1.45 | 2.77 µM | 1.82 | 4.09 | – | – | 1.33 | 4.99
CC(C)[C@@H]1CC[C@]2(CO2)[C@@H]2C(=O)OCC(C(=O)O)=C[C@H]21 | 0.355 | 6.72 | 0.677 | > 100 | 0.431 | > 100 | 0.3 | 1.37 | 0.54 | > 100 | 0.203 | 0.738 | 0.411 | > 100 µM | 0.378 | > 100 | 0.24 | 0.635 | 0.328 | 1.7
COC12C(COC(=O)NCCO)C3=C(C(=O)C(C)=C(N)C3=O)N1CC1NC12 (stereo not given) | – | > 264 | – | 248 | – | > 264 | 141 | > 264 | 78.1 | > 264 | – | 122 | 4.99 | 28.2 µM and 21.7 µM | – | > 264 | – | > 264 | – | > 264
COc1ccc(C(O)c2cc3c(N)c(C(=O)Nc4cccc5ccccc45)sc3nc2C)cc1 (stereo not given) | 0.127 | 0.415 | 0.47 | > 100 | 0.307 | > 50.5 | 3.23 | > 100 | 0.493 | > 100 | 0.2 | 0.676 | 0.352 | > 100 µM | 0.326 | > 48.7 | 4.17 | > 100 | 0.254 | 0.652
C#Cc1ccc(-n2c(/C=C/c3ccc(O)cc3)nc3ncccc3c2=O)cc1 | 1.6 | 4.04 | 3.87 | 47.9 | 5.27 | > 100 | 1.48 | 4.41 | 32.3 | > 100 | 2.48 | 6.88 | 4.15 | > 100 µM | 4.65 | > 100 | 3.41 | > 100 | 3.2 | 30
Nc1nc(=S)c2ncn(C3OC(COP(=O)(O)O)C(O)C3O)c2[nH]1 (stereo not given) | 2.48 | > 100 | 3.44 | > 100 | 0.491 | > 100 | 1.43 | 9.75 | 0.752 | > 100 | 0.631 | 9.24 | 0.544 | > 100 µM | 1.72 | > 100 | 0.451 | > 100 | 2.37 | > 100
CC(=O)Oc1ccc(C2=Cc3ccc(OC(C)=O)cc3OC2C)cc1 (stereo not given) | 0.63 | 15 | 5.8 | > 100 | 3.57 | 73.1 | 4.11 | 26.4 | 21.1 | > 100 | 2.25 | 7.95 | 2.31 | 5.73 µM | 5.07 | 26.1 | 0.59 | 16 | 0.645 | 4.86
CCCCCCCCCCCCCCNC(=O)Nc1ccc(Cl)c(Cl)c1 | 2.82 | 8.33 | 2.67 | > 37.1 | 3.02 | > 28.4 | 4.01 | > 26.3 | 3.69 | > 100 | 2.13 | > 26.4 | – | – | 3.21 | > 100 | 1.24 | 3.26 | 2.59 | > 40.1
Fc1ccc(NC(c2ccc(F)cc2)C2CCN(CCCCc3ccccc3)CC2)cc1 (stereo not given) | 1.6 | 2.95 | 1.82 | 3.76 | 1.7 | 3.45 | 1.72 | 3.17 | 1.7 | 4.04 | 0.671 | 2.21 | – | – | 1.45 | 2.89 | 2.17 | 4.78 | 1.24 | 3.54
CCO/C=C1\SC(=S)N(c2ccc(OCC)cc2)C1=O | – | > 100 | – | > 100 | – | > 100 | – | > 100 | – | > 100 | – | > 100 | – | > 100 µM | – | > 100 | – | > 100 | – | > 100
S=C1SCN(Cc2ccccc2)CN1Cc1ccco1 | 1.67 | 10.4 | 5.75 | 61.6 | 17.9 | > 100 | 2 | 5.53 | 9.73 | 21.9 | 21.6 | 69.7 | 4.81 | 17.4 µM | 2.95 | 14.4 | – | – | 5.91 | > 100
